According to article PMC2854587 (Nature, 2008):

Molecular target: T1, SrfTEII (surfactin type II thioesterase; SrfD, external thioesterase) (Bacillus subtilis, UniProt Q08788)
T1 sequence (Q08788 1-241): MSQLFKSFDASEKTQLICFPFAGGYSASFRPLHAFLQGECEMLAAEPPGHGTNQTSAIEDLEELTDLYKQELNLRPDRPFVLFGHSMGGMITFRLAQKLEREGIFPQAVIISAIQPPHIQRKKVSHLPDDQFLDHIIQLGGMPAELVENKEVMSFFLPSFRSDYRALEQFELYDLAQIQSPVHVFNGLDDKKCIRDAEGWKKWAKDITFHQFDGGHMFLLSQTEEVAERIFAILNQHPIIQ
Test: […]-HSQC NMR titration
Type: binding
Details: 296 K; 15N-enriched SrfTEII

`CCCCCCCCCCCCCC(=O)SCCNC(=O)CCNC(=O)[C@H](O)C(C)(C)COP(=O)(O)OP(=O)(O)OC[C@H]1O[C@@H](n2cnc3c(N)ncnc32)[C@H](O)[C@@H]1OP(=O)(O)O` [myristoyl-CoA] was tested, and the “15N-HSQC NMR titration (chemical shift perturbation)” value was “Interestingly, myristoyl-CoA also binds to SrfTEII”.
